This note sets out measurements from ChEMBL document CHEMBL1149942, “Characterization of the taxol structure-activity profile for the locus of the A-ring side chain” (1994).

Test [1] in a line: Activity in calf brain microtubule protein assembly assay. Type of test: functional, Bos taurus.
In another test the test system is J774. Description: In vitro cytotoxicity against J774.2 cells after 72 hr incubation. The test is classed as functional. To be noted: Mus musculus, J774, 72 h; read-out: ED50 (the source's name).
The test system of another test is J774.2. Description: Compound was tested for cytotoxicity against J774.2 cells, concentration required to inhibit cell division by 50% after 72 hr incubation. Type of test: functional. To be noted: Mus musculus, J774.2, 72 h; read-out: ED50 (the source's name).

`CC(=O)O[C@H]1C(=O)[C@@]2(C)C([C@H](OC(=O)c3ccccc3)[C@]3(O)C[C@H](OC(=O)[C@H](O)[C@@H](NC(=O)c4ccc(C(=O)c5ccccc5)cc4)c4ccccc4)C(C)=C1C3(C)C)[C@]1(OC(C)=O)CO[C@@H]1C[C@@H]2O` (some centres not stated) displayed an Assembly in test [1] of 39%. For the same molecule, the EC50 in the test with J774 was 1.5 µM. For `CC(=O)O[C@H]1C(=O)[C@@]2(C)C([C@H](OC(=O)c3ccccc3)[C@]3(O)C[C@H](OC(=O)[C@H](O)CNC(=O)c4ccc(N=[N+]=[N-])cc4)C(C)=C1C3(C)C)[C@]1(OC(C)=O)CO[C@@H]1C[C@@H]2O` (some centres not stated), the Assembly in test [1] is 25%. For the same molecule, the EC50 in the test with J774 stood at 20 µM. In the same order, the values of `CC(=O)O[C@H]1C(=O)[C@@]2(C)C([C@H](OC(=O)c3ccccc3)[C@]3(O)C[C@H](OC(=O)[C@H](O)CNC(=O)c4ccccc4)C(C)=C1C3(C)C)[C@]1(OC(C)=O)CO[C@@H]1C[C@@H]2O` (some centres not stated) are 60% and 20 µM. In test [1], `CC(=O)O[C@H]1C(=O)[C@@]2(C)C([C@H](OC(=O)c3ccccc3)[C@]3(O)C[C@H](OC(=O)[C@H](O)[C@@H](NC(=O)OCc4ccccc4)c4ccccc4)C(C)=C1C3(C)C)[C@]1(OC(C)=O)CO[C@@H]1C[C@@H]2O` (some centres not stated) gave an Assembly of 94%. In the test with J774, the EC50 came out at 0.19 µM. The molecule `CC(=O)O[C@H]1C(=O)[C@@]2(C)C([C@H](OC(=O)c3ccccc3)[C@]3(O)C[C@H](OC(=O)[C@H](O)CNC(=O)C(C)(C)C)C(C)=C1C3(C)C)[C@]1(OC(C)=O)CO[C@@H]1C[C@@H]2O` (some centres not stated) gave an Assembly in test [1] of 28%. Moreover, the EC50 in the test with J774 is 40 µM. In the same order, the values of `CC(=O)O[C@H]1C(=O)[C@@]2(C)C([C@H](OC(=O)c3ccccc3)[C@]3(O)C[C@H](OC(=O)[C@H](O)[C@@H](NC(=O)c4ccc(N=[N+]=[N-])cc4)c4ccccc4)C(C)=C1C3(C)C)[C@]1(OC(C)=O)CO[C@@H]1C[C@@H]2O` (some centres not stated) are 90% and 0.28 µM. The molecule `CC(=O)O[C@H]1C(=O)[C@@]2(C)C([C@H](OC(=O)c3ccccc3)[C@]3(O)C[C@H](OC(=O)[C@H](O)[C@@H](NC(=O)c4ccc(C(C)=O)cc4)c4ccccc4)C(C)=C1C3(C)C)[C@]1(OC(C)=O)CO[C@@H]1C[C@@H]2O` (some centres not stated) had an Assembly in test [1] of 84%. The EC50 with J774 worked out at 1.6 µM. Turning to `CC(=O)O[C@H]1C(=O)[C@@]2(C)C([C@H](OC(=O)c3ccccc3)[C@]3(O)C[C@H](OC(=O)[C@H](O)CNC(=O)OC(C)(C)C)C(C)=C1C3(C)C)[C@]1(OC(C)=O)CO[C@@H]1C[C@@H]2O` (some centres not stated), in test [1], the Assembly worked out at 51%. The EC50 in the test on J774 stood at 2 µM.

Consider `CC(=O)O[C@H]1C(=O)[C@@]2(C)C([C@H](OC(=O)c3ccccc3)[C@]3(O)C[C@H](OC(=O)[C@H](O)[C@@H](NC(=O)c4ccccc4O)c4ccccc4)C(C)=C1C3(C)C)[C@]1(OC(C)=O)CO[C@@H]1C[C@@H]2O` (some centres not stated), for which the Assembly in test [1] was found to be 93%. Also, in the test with J774, the EC50 stood at 0.56 µM. As to `CCCCCC(=O)NC[C@@H](O)C(=O)O[C@H]1C[C@@]2(O)[C@@H](OC(=O)c3ccccc3)C3[C@](C)(C(=O)[C@H](OC(C)=O)C(=C1C)C2(C)C)[C@@H](O)C[C@H]1OC[C@@]31OC(C)=O` (some centres not stated), the EC50 in the test on J774.2 worked out at 26 µM. This molecule also returned an Assembly in test [1] of 34%. In the case of `CC(=O)O[C@H]1C(=O)[C@@]2(C)C([C@H](OC(=O)c3ccccc3)[C@]3(O)C[C@H](OC(=O)[C@H](O)CNC(=O)c4ccc5ccccc5c4)C(C)=C1C3(C)C)[C@]1(OC(C)=O)CO[C@@H]1C[C@@H]2O` (some centres not stated), in the test on J774.2, the EC50 is 26 µM. In test [1], this molecule had an Assembly of 28%. `CC(=O)O[C@H]1C(=O)[C@@]2(C)C([C@H](OC(=O)c3ccccc3)[C@]3(O)C[C@H](OC(=O)[C@H](O)CNC(=O)C4CCCCC4)C(C)=C1C3(C)C)[C@]1(OC(C)=O)CO[C@@H]1C[C@@H]2O` (some centres not stated) had an Assembly in test [1] of 33%. In addition, in the test with J774, the EC50 stood at 16 µM.

Molecule `CC(=O)O[C@H]1C(=O)[C@@]2(C)C([C@H](OC(=O)c3ccccc3)[C@]3(O)C[C@H](OC(=O)[C@H](O)CNC(=O)OCc4ccccc4)C(C)=C1C3(C)C)[C@]1(OC(C)=O)CO[C@@H]1C[C@@H]2O` (some centres not stated) displayed an Assembly in test [1] of 20%. In the test on J774, the EC50 was 16 µM.

Regarding `CC(=O)O[C@H]1C(=O)[C@@]2(C)C([C@H](OC(=O)c3ccccc3)[C@]3(O)C[C@H](OC(=O)[C@H](O)[C@@H](NC(=O)c4ccc(C(F)(F)F)cc4)c4ccccc4)C(C)=C1C3(C)C)[C@]1(OC(C)=O)CO[C@@H]1C[C@@H]2O` (some centres not stated), the Assembly in test [1] worked out at 80%. The EC50 with J774 is 0.9 µM. With `CC(=O)O[C@H]1C(=O)[C@@]2(C)C([C@H](OC(=O)c3ccccc3)[C@]3(O)C[C@H](OC(=O)[C@H](O)CNC(=O)C45CC6CC(CC(C6)C4)C5)C(C)=C1C3(C)C)[C@]1(OC(C)=O)CO[C@@H]1C[C@@H]2O` (some centres not stated), in test [1], the Assembly amounted to 24%. In addition, the EC50 with J774 was found to be 11 µM.

As to `CC(=O)O[C@H]1C(=O)[C@@]2(C)C([C@H](OC(=O)c3ccccc3)[C@]3(O)C[C@H](OC(=O)[C@H](O)CNC(=O)c4ccc(C(F)(F)F)cc4)C(C)=C1C3(C)C)[C@]1(OC(C)=O)CO[C@@H]1C[C@@H]2O` (some centres not stated), the Assembly in test [1] is on record as 20%. Besides, the EC50 in the test on J774 amounted to 23 µM. The corresponding values for `CC(=O)O[C@@]12CO[C@@H]1C[C@H](O)[C@@]1(C)C(=O)[C@H](O)C3=C(C)[C@@H](OC(=O)[C@H](O)[C@@H](NC(=O)OC(C)(C)C)c4ccccc4)C[C@@](O)([C@@H](OC(=O)c4ccccc4)[C@H]21)C3(C)C.O.O.O` [DOCETAXEL] are 105% and 0.05 µM.

The molecule `Nc1nc2c(ncn2[C@@H]2O[C@H](COP(=O)(O)OP(=O)(O)OP(=O)(O)O)[C@@H](O)[C@H]2O)c(=O)[nH]1` [GUANOSINE TRIPHOSPHATE] had an Assembly in test [1] of 70%. In the case of `CC(=O)O[C@H]1C(=O)[C@@]2(C)[C@H]([C@H](OC(=O)c3ccccc3)[C@]3(O)C[C@H](OC(=O)[C@H](O)[C@@H](NC(=O)c4ccccc4)c4ccccc4)C(C)=C1C3(C)C)[C@]1(OC(C)=O)CO[C@@H]1C[C@@H]2O` [PACLITAXEL], in test [1], the Assembly stood at 100%. Also, in the test with J774, the EC50 is 0.09 µM.
